Literature values in patent publication US20190314394A1, “IMMUNE-POTENTIATING DRUG NANOCARRIERS AND METHODS OF PRODUCTION AND USE THEREOF” (priority 2013, published 2019).

Test system: HLA-DR molecules
Details: 15 out of 16 of the most prevalent HLA-DR molecules; read-out: IC50 (high or intermediate affinity binding)

For “aKXVAAWTLKAAa (SEQ ID NO: 5) (AKAVAAWTLKAAA; D-alanine termini, cyclohexylalanine; MOD_RES (1)..(1) D-Alanine; MOD_RES (3)..(3) Cyclohexylalanine; MOD_RES (13)..(13) D-Alanine) [PADRE peptide variant; a=D-alanine, X=cyclohexylalanine]”, the IC50 is listed as less than 1000 nM.
